Measurements from the NIST ThermoML archive (doi:10.1021/je500239t).
Values joined by “and” are separate entries in the source; they are usually repeats but may differ in a detail not shown here. Equal entries are not always repeated.

Details: for mass density: Liquid, isochoric method; for surface tension liquid-gas: Ring tensiometer

CCCCCCCCCCCCCC[P+](CCCCCC)(CCCCCC)CCCCCC.O=S(=O)([N-]S(=O)(=O)C(F)(F)F)C(F)(F)F
Details	mass density [kg/m3]
219.01 K, 845.2 kPa	1126.5
225.43 K, 10086 kPa	1125.99
225.43 K, 30200 kPa	1132.83
232.16 K, 19479 kPa	1125.46
233.47 K, 2869.4 kPa	1117.39
239.5 K, 10003 kPa	1116.86
239.51 K, 29986 kPa	1124.87
246.7 K, 20172 kPa	1116.37
247.35 K, 40212 kPa	1124.27
247.71 K, 1577.7 kPa	1107.13
254.34 K, 29850 kPa	1115.68
254.34 K, 29998 kPa	1115.78
254.36 K, 9848.1 kPa	1106.63
255.79 K, 51007 kPa	1123.62
262.3 K, 20026 kPa	1106.02
262.46 K, 40028 kPa	1115.06
263.55 K, 901 kPa	1095.02
268.29 K, 100 kPa	1090.79
270.61 K, 30010 kPa	1105.4
270.69 K, 9770.1 kPa	1094.49
270.95 K, 49862 kPa	1114.43
273.26 K, 100 kPa	1087.18
278.4 K, 100 kPa	1083.71
279.46 K, 39911 kPa	1104.75
280.16 K, 20417 kPa	1093.79
281.02 K, 1048.9 kPa	1082.63
283.3 K, 100 kPa	1079.84
288.55 K, 100 kPa	1076.14
288.56 K, 49907 kPa	1104.08
288.91 K, 10149 kPa	1082.04
288.92 K, 30030 kPa	1093.15
292.93 K, 100 kPa	1072.95
298 K, 39766 kPa	1092.49
298.17 K, 191.9 kPa	1068.8
298.17 K, 19640 kPa	1081.39
298.19 K, 100 kPa	1068.54
299.08 K, 1497.9 kPa	1069.18
303.24 K, 100 kPa	1065.2
307.5 K, 49581 kPa	1091.81
307.85 K, 10007 kPa	1068.57
308.01 K, 100 kPa	1061.72
308.08 K, 30024 kPa	1080.67
309.27 K, 1043.1 kPa	1061.06
313.17 K, 100 kPa	1057.68
318.03 K, 39710 kPa	1079.97
318.05 K, 100 kPa	1054.69
318.08 K, 19797 kPa	1067.86
318.16 K, 9063.9 kPa	1060.46
318.96 K, 1508.5 kPa	1054.33
323.08 K, 100 kPa	1051.01
328.31 K, 100 kPa	1047.34
328.73 K, 10024 kPa	1053.67
328.99 K, 49945 kPa	1079.21
329.13 K, 30007 kPa	1067.09
329.82 K, 733.9 kPa	1046.15
329.83 K, 19983 kPa	1059.65
333.03 K, 100 kPa	1044.1
338.51 K, 100 kPa	1040.38
339.97 K, 40003 kPa	1066.34
340.03 K, 20057 kPa	1052.9
340.84 K, 1346 kPa	1038.9
340.84 K, 10036 kPa	1045.42
341.21 K, 30097 kPa	1058.87
342.84 K, 100 kPa	1037.08
348.34 K, 100 kPa	1033.83
350.84 K, 50030 kPa	1065.58
353.13 K, 100 kPa	1030.2
353.15 K, 20345 kPa	1044.59
353.15 K, 31348 kPa	1052.01
353.15 K, 40207 kPa	1058.06
353.16 K, 11244 kPa	1038.09
358.18 K, 100 kPa	1026.93
364.28 K, 100 kPa	1022.11

Details	surface tension liquid-gas
273.49 K	31.49 mN/m
273.52 K	31.51 mN/m
278.33 K	31.18 mN/m
278.52 K	31.21 mN/m
283.37 K	30.85 mN/m
283.39 K	30.94 mN/m
288.38 K	30.66 mN/m
288.5 K	30.56 mN/m
293.37 K	30.35 mN/m
298.24 K	30.13 mN/m
298.25 K	30.11 mN/m
303.15 K	29.82 mN/m
303.17 K	29.89 mN/m
308.18 K	29.56 mN/m
308.21 K	29.37 mN/m
313.21 K	29.15 mN/m
313.22 K	29.24 mN/m
318.2 K	29.03 mN/m
318.23 K	28.86 mN/m
323.19 K	28.56 mN/m
323.28 K	28.54 mN/m
328.11 K	28.34 mN/m
328.28 K	27.99 mN/m
333.15 K	27.89 mN/m and 27.98 mN/m
338.1 K	27.59 mN/m
338.13 K	27.94 mN/m
343 K	27.46 mN/m
343.05 K	27.3 mN/m
348 K	27.14 mN/m
348.34 K	26.92 mN/m
353.32 K	26.56 mN/m
353.33 K	26.79 mN/m
358.1 K	26.38 mN/m
358.49 K	26.45 mN/m
364.76 K	26.01 mN/m
364.97 K	25.93 mN/m
